# Values quoted from earlier work as cited in patent US9399652B2, “Synthetic route to pactamycin and pactamycin analogs” (The University of North Carolina at Chapel Hill, priority 2013, dated 2016).
# Details: literature value (ref. 11); cell line not given; read-out: cytotoxicity (IC50)
compound,measurement,value
CC(=O)c1cccc(N[C@H]2[C@H](N)[C@@](NC(=O)N(C)C)([C@H](C)O)[C@@](C)(O)[C@@]2(O)COC(=O)c2c(C)cccc2O)c1 [Pactamycin],IC50,95 nM
